This experiment addresses T1, hTRPV3 (Homo sapiens, UniProt Q8NET8).
T1 construct: expressed in transfected cells; host or cells: HEK-293
T1 sequence (Q8NET8 1-790): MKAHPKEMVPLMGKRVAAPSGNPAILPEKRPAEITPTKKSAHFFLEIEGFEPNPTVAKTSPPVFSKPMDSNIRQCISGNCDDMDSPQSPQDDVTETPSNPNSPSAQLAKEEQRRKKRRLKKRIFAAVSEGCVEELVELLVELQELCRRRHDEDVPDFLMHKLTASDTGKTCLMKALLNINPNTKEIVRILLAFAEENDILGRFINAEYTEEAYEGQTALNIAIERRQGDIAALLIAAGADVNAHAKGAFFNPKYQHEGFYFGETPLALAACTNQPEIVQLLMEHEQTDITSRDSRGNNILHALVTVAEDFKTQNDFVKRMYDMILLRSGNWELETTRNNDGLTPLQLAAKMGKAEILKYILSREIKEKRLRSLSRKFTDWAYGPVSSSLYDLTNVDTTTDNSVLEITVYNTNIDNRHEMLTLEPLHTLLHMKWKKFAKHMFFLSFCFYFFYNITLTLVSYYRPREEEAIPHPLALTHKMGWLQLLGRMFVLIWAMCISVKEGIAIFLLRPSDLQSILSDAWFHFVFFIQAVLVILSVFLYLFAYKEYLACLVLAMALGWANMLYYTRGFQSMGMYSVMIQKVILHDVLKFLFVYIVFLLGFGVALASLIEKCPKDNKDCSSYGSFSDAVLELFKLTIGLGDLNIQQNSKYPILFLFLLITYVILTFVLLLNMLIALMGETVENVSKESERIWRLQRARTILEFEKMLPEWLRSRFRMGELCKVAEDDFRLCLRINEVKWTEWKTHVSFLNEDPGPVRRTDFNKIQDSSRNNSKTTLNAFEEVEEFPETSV
The experiment in a line: Whole cell patch clamp inhibition rate test on HEK-293 cells instantaneously expressing TRPV3. The experiment is classed as cell-based. The following applies: HEK293; hTRPV3, single concentration 0.3 μM. Summed up: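 HEK-293 cells transiently transfected with TRPV3, recorded next-but-one day by whole-cell patch clamp at room temperature: holding −80 mV, ramp −100 to 100 mV over 100 ms every 5 s, peak current monitored. Ascending concentrations perfused, 5 min each; each cell its own control, at least two cells per concentration.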
On the technique in general: Patch clamp records ionic current or voltage across a cell membrane.

Regarding `CC1(O)CC2(CCN(C(=O)c3ccc(F)cn3)C2)c2ccc(-c3ccccc3C3CC3)cc21` (stereo not drawn) [Example 5, (5-(2-cyclopropylphenyl)-3-hydroxy-3-methyl-2,3-dihydrospiro[indene-1,3′-pyrrolidine]-1′-yl)(5-fluoropyridin-2-yl) ketone], the inhibition at 0.3 µM was less than 25%.

As to `CC(C)c1ccccc1-c1ccc2c(c1)C(O)CC21CCN(C(=O)c2csc(Cl)n2)C1` (stereo not drawn) [Example 18, (2-chlorothiazol-4-yl)(3-hydroxy-5-(2-isopropylphenyl)-2,3-dihydrospiro[indene-1,3′-pyrrolidine]-1′-yl) ketone], the inhibition at 0.3 µM was in the range of 70 to 100%.

Consider `O=C(c1ccc(F)cn1)N1CCC2(CC(O)c3cc(-c4cccc5c4CCC5)ccc32)C1` (stereo not drawn) [Example 87, (5-(2,3-dihydro-1H-indene-4-yl)-3-hydroxy-2,3-dihydrospiro[indene-1,3′-pyrrolidine]-1′-yl)(5-fluoropyridin-2-yl) ketone], for which the inhibition at 0.3 µM lay within 50 to 70%.

Turning to `CC(C)c1ccccc1-c1ccc2c(c1)C(O)CC21CCN(C(=O)c2ccn3nccc3n2)C1` (stereo not drawn) [Example 57, (3-hydroxy-5-(2-isopropylphenyl)-2,3-dihydrospiro[indene-1,3′-pyrrolidine]-1′-yl)(pyrazolo[1,5-a]pyrimidin-5-yl) ketone], the inhibition at 0.3 µM was in the range of 50 to 70%.

Consider `Cc1nc(C(=O)N2CCC3(CC(O)c4cc(-c5ccccc5C5CC5)ccc43)C2)ccc1O` (stereo not drawn) [Example 13, (5-(2-cyclopropylphenyl)-3-hydroxy-2,3-dihydrospiro[indene-1,3′-pyrrolidine]-1′-yl)(5-hydroxy-6-methylpyridin-2-yl) ketone], for which the inhibition at 0.3 µM was less than 25%.

`O=C(c1ccc(F)cn1)N1CC[C@@]2(C[C@H](O)c3cc(-c4ccccc4C4CC4)ccc32)C1` [Example 24, ((1S,3S)-5-(2-cyclopropylphenyl)-3-hydroxy-2,3-dihydrospiro[indene-1,3′-pyrrolidine]-1′-yl)(5-fluoropyridin-2-yl)ketone] gave an inhibition at 0.3 µM of less than 25%.

The compound `CC(C)c1ccccc1-c1ccc2c(c1)C(O)CC21CCN(C(=O)C2CCN(C)CC2)C1` (stereo not drawn) [Example 74, (3-hydroxy-5-(2-isopropylphenyl)-2,3-dihydrospiro[indene-1,3′-pyrrolidine]-1′-yl)(1-methylpiperidin-4-yl) ketone] came in with an inhibition at 0.3 µM of less than 25%.

Regarding `CC(C)c1ccccc1-c1ccc2c(c1)[C@H](O)C[C@]21CCN(C(=O)c2csc(Cl)n2)C1` [Example 34, (2-chlorothiazol-4-yl)((1R,3R)-3-hydroxy-5-(2-isopropylphenyl)-2,3-dihydrospiro[indene-1,3′-pyrrolidine]-1′-yl)ketone], the inhibition at 0.3 µM is less than 25%.

In turn, `O=C(c1cccc(Cl)n1)N1CCC2(CC(O)c3cc(-c4ccccc4C4CC4)ccc32)C1` (stereo not drawn) [Example 51, (6-chloropyridin-2-yl)(5-(2-cyclopropylphenyl)-3-hydroxy-2,3-dihydrospiro[indene-1,3′-pyrrolidine]-1′-yl)ketone] returned an inhibition at 0.3 µM of 70 to 100%.

Compound `CC(C)(O)c1ccccc1-c1ccc2c(c1)C(O)CC21CCN(C(=O)c2ccc(F)cn2)C1` (stereo not drawn) [Example 89, (5-fluoropyridin-2-yl)(3-hydroxy-5-(2-(2-hydroxypropyl-2-)phenyl)-2,3-dihydrospiro[indene-1,3′-pyrrolidine]-1′-yl) ketone] yielded an inhibition at 0.3 µM of 25 to 50%.

With `CC(C)(C)c1ccccc1-c1ccc2c(c1)C(O)CC21CCN(C(=O)c2ccc(F)cn2)C1` (stereo not drawn) [Example 88, (5-(2-(tert-butyl)phenyl)-3-hydroxy-2,3-dihydrospiro[indene-1,3′-pyrrolidine]-1′-yl)(5-fluoropyridin-2-yl) ketone], the inhibition at 0.3 µM is 70 to 100%.

For `O=C(c1ncccc1Cl)N1CCC2(CC(O)c3cc(-c4ccccc4C4CC4)ccc32)C1` (stereo not drawn) [Example 52, (3-chloropyridin-2-yl)(5-(2-cyclopropylphenyl)-3-hydroxy-2,3-dihydrospiro[indene-1,3′-pyrrolidine]-1′-yl)ketone], the inhibition at 0.3 µM was 50 to 70%.

Broadly, the inhibition is the percentage by which the read-out fell short of the control. Read a high inhibition as a response far below the control.
